Counter-ions that a name gives are not always drawn. Some results are limits rather than exact numbers.

This assay concerns the target Nav1.8 ion channel stably expressed on HEK293 cells (Homo sapiens (Human), UniProt Q9Y5Y9). Put plainly: Inhibitory activity against Nav1.8, manual patch clamp. It counts as cell-based. As to conditions: resting protocol (-80 mV to 10 mV), 1 μM TTX, read-out: IC50 for the inhibition of Nav1.8 channel activity. An excerpt:
The objective of the experiment was to investigate the effects of the compounds on the Nav1.8 ion channel in ex vivo experiments. The Nav1.8 ion channel is stably expressed on HEK293 cells. After the Nav1.8 current stabilized, the effects of the compounds on the Nav1.8 ion channel were obtained by comparing the magnitudes of the Nav1.8 currents before and after the compounds were applied.
• 1) A patch clamp amplifier: patch clamp PC-505B (WARNER instruments)/MultiClamp 700A (Axon instrument) • 2) A digital-to-analog converter: Digidata 1440A (Axon CNS)/Digidata 1550A (Axon instruments) • 3) A micromanipulator: MP-225 (SUTTER instrument) • 4) An inverted microscope: TL4 (Olympus) • 5) Glass micropipette puller: PC-10 (NARISHIGE) • 6) Microelectrode glass capillaries: B12024F (Wuhan VitalSense Scientific Instruments Co., Ltd.) • 7) Dimethyl sulfoxide (DMSO) D2650 (Sigma-Aldrich) • 8) TTX AF3014 (Affix Scientific)
The compounds for preparing the intracellular and extracellular fluids were purchased from Sigma (St. Louis, MO) except for the NaOH and KOH for the acid-base titrations. The extracellular fluid (mM) was: NaCl, 137; KCl, 4; CaCl2, 1.8; MgCl2, 1; HEPES, 10; glucose, 10; pH 7.4 (NaOH titration). The intracellular fluid (mM) was: aspartic acid, 140; MgCl2, 2; EGTA, 11; HEPES, 10; pH 7.2 (CsOH titration). All test and control compound solutions contained 1 μM TTX.
The test compounds were stored at a concentration of 9 mM in dimethyl sulfoxide (DMSO). On the testing day, the compounds were further dissolved in the extracellular fluid to prepare the required concentrations.
1) After the compounds were prepared into solutions with specified concentrations, the compound solutions were sequentially added to channels in ascending order according to their concentrations, and each channel was labeled.
2) A cell was transferred to the perfusion chamber. Positive pressure was applied inside the electrode, and the electrode tip was brought into contact with the cell. The three-way valve of the suction device was switched to the state where all three ways were open, and negative pressure was then applied to the electrode, allowing a high-resistance seal to form between the electrode and the cell. The application of negative pressure was continued to rupture the cell membrane, leading to the formation of a current pathway.
3) After the cell membrane rupture current stabilized, perfusion was performed with different concentrations in sequence. If the current remained stable for at least one minute, perfusion was performed with the next concentration.
4) The perfusion chamber was cleaned. The perfusion chamber was rinsed with the compound solutions in descending order according to their concentrations, with each concentration applied for 20 s. Finally, the perfusion chamber was rinsed with the extracellular fluid for 1 min.
The cell was clamped at −80 mV and then depolarized to 10 mV using a square wave lasting for 10 ms to obtain a Nav1.8 current. This procedure was repeated once every 5 seconds. The maximum current induced by the square wave was detected. After the current stabilized, perfusion was performed with the test compounds. After the reaction stabilized, the strength of the blocking was calculated.
The data were stored on a computer system and analyzed. Data acquisition and analysis were performed using pCLAMP 10 (Molecular Devices, Union City, CA), and the results were reviewed by a manager. “Current stabilized” means that the changes in current over time were within a limited range. The magnitude of the current after stabilization was used to calculate the effect of the compound at this […].
The inhibitory activity of the compounds of the present disclosure against Nav1.8 was determined through the above assay.
(Patch clamp records ionic current or voltage across a cell membrane.)
The IC50 is the concentration at which inhibition is half-maximal. In the case of `COc1c([C@H]2[C@H](C(=O)Nc3ccnc(OC[C@H](O)CO)c3)O[C@@](C)(C(F)(F)F)[C@H]2C)ccc(F)c1F` [Example 2, (2R,3S,4S,5R)-3-(3,4-Difluoro-2-methoxyphenyl)-N-(2-((R)-2,3-dihydroxypropoxy)pyridin-4-yl)-4,5-dimethyl-5-(trifluoromethyl)tetrahydrofuran-2-carboxamide], the IC50 came to 2.89 nM.

As to `COc1c([C@H]2[C@H](C(=O)Nc3ccnc(C(C)(C)O)c3)O[C@@](C)(C(F)(F)F)[C@H]2C)ccc(F)c1F` [Example 3, (2R,3S,4S,5R)-3-(3,4-Difluoro-2-methoxyphenyl)-N-(2-(2-hydroxypropan-2-yl)pyridin-4-yl)-4,5-dimethyl-5-(trifluoromethyl)tetrahydrofuran-2-carboxamide], the IC50 stood at 2.65 nM.

On to `COc1c([C@H]2[C@H](C(=O)Nc3ccnc(C(=O)NNC4CC4)c3)O[C@@](C)(C(F)(F)F)[C@H]2C)ccc(F)c1F` [Example 23, (2R,3S,4S,5R)—N-(2-(2-Cyclopropylhydrazine-1-carbonyl)pyridin-4-yl)-3-(3,4-difluoro-2-methoxyphenyl)-4,5-dimethyl-5-(trifluoromethyl)tetrahydrofuran-2-carboxamide], for which the IC50 was 2.85 nM.

In the case of `COc1c([C@H]2[C@H](C(=O)Nc3ccnc(C(=O)NN(C)C)c3)O[C@@](C)(C(F)(F)F)[C@H]2C)ccc(F)c1F` [Example 24, (2R,3S,4S,5R)-3-(3,4-Difluoro-2-methoxyphenyl)-N-(2-(2,2-dimethylhydrazine-1-carbonyl)pyridin-4-yl)-4,5-dimethyl-5-(trifluoromethyl)tetrahydrofuran-2-carboxamide], the IC50 is 2.12 nM.

As for `COc1c([C@H]2[C@H](C(=O)Nc3ccnc(C(=O)C(N)=O)c3)O[C@@](C)(C(F)(F)F)[C@H]2C)ccc(F)c1F` [Example 26, (2R,3S,4S,5R)—N-(2-(2-Amino-2-oxoacetyl)pyridin-4-yl)-3-(3,4-difluoro-2-methoxyphenyl)-4,5-dimethyl-5-(trifluoromethyl)tetrahydrofuran-2-carboxamide trifluoroacetate], the IC50 is 1.09 nM.

For `[2H]C([2H])([2H])O/N=C(\N)c1cc(NC(=O)[C@@H]2O[C@@](C)(C(F)(F)F)[C@@H](C)[C@H]2c2ccc(F)c(F)c2OC)ccn1` [Example 37, (2R,3S,4S,5R)-3-(3,4-Difluoro-2-methoxyphenyl)-N-(2-((Z)—(N′-methoxy-d3)carbamimidoyl)pyridin-4-yl)-4,5-dimethyl-5-(trifluoromethyl)tetrahydrofuran-2-carboxamide], the IC50 was determined as 1.86 nM.

Regarding `COc1c([C@H]2[C@H](C(=O)Nc3ccc(F)c(C(=N)N)c3)O[C@@](C)(C(F)(F)F)[C@H]2C)ccc(F)c1F` [Example 27, (2R,3S,4S,5R)—N-(3-Carbamimidoyl-4-fluorophenyl)-3-(3,4-difluoro-2-methoxyphenyl)-4,5-dimethyl-5-(trifluoromethyl)tetrahydrofuran-2-carboxamide], the IC50 was < 0.16 nM.

As to `COc1c([C@H]2[C@H](C(=O)Nc3ccnc(NC(C)=O)c3)O[C@@](C)(C(F)(F)F)[C@H]2C)ccc(F)c1F` [Example 11, (2R,3S,4S,5R)—N-(2-Acetamidopyridin-4-yl)-3-(3,4-difluoro-2-methoxyphenyl)-4,5-dimethyl-5-(trifluoromethyl)tetrahydrofuran-2-carboxamide], the IC50 stood at 1.54 nM.

On to `COc1c([C@H]2[C@H](C(=O)Nc3ccnc(C(=O)N4CCCN4)c3)O[C@@](C)(C(F)(F)F)[C@H]2C)ccc(F)c1F` [Example 14, (2R,3S,4S,5R)-3-(3,4-Difluoro-2-methoxyphenyl)-4,5-dimethyl-N-(2-(pyrazolidine-1-carbonyl)pyridin-4-yl)-5-(trifluoromethyl)tetrahydrofuran-2-carboxamide], for which the IC50 is 2.12 nM.

`COc1c([C@H]2[C@H](C(=O)Nc3ccnc(OCC(O)C4(O)CC4)c3)O[C@@](C)(C(F)(F)F)[C@H]2C)ccc(F)c1F` (stereo partly drawn) [Example 39, (2R,3S,4S,5R)-3-(3,4-Difluoro-2-methoxyphenyl)-N-(2-(2-hydroxy-2-(1-hydroxycyclopropyl)ethoxy)pyridin-4-yl)-4,5-dimethyl-5-(trifluoromethyl)tetrahydrofuran-2-carboxamide]: the IC50 was determined as 2.68 nM.

For `COc1c([C@H]2[C@H](C(=O)Nc3ccnc(C(=O)NOCC4CC4)c3)O[C@@](C)(C(F)(F)F)[C@H]2C)ccc(F)c1F` [Example 18, N-(Cyclopropylmethoxy)-4-((2R,3S,4S,5R)-3-(3,4-difluoro-2-methoxyphenyl)-4,5-dimethyl-5-(trifluoromethyl)tetrahydrofuran-2-carboxamido)picolinamide], the IC50 came to 1.89 nM.

Take `CONC(=O)c1cc(NC(=O)[C@@H]2O[C@@](C)(C(F)(F)F)[C@@H](C)[C@H]2c2ccc(F)c(F)c2OC)ccn1` [Example 5, 4-((2R,3S,4S,5R)-3-(3,4-Difluoro-2-methoxyphenyl)-4,5-dimethyl-5-(trifluoromethyl)tetrahydrofuran-2-carboxamido)-N-methoxypicolinamide]: the IC50 came out at 0.71 nM.

In the case of `COc1c([C@H]2[C@H](C(=O)Nc3ccnc(C(=O)N4CCCO4)c3)O[C@@](C)(C(F)(F)F)[C@H]2C)ccc(F)c1F` [Example 15, (2R,3S,4S,5R)-3-(3,4-Difluoro-2-methoxyphenyl)-N-(2-(isoxazolidine-2-carbonyl)pyridin-4-yl)-4,5-dimethyl-5-(trifluoromethyl)tetrahydrofuran-2-carboxamide], the IC50 was 1.78 nM.

As for `CO/N=C(\N)c1cc(NC(=O)[C@@H]2O[C@@](C)(C(F)(F)F)[C@@H](C)[C@H]2c2ccc(F)c(F)c2OC)cc[n+]1[O-]` [Example 44, 4-((2R,3S,4S,5R)-3-(3,4-Difluoro-2-methoxyphenyl)-4,5-dimethyl-5-(trifluoromethyl)tetrahydrofuran-2-carboxamido)-2-((Z)—N′-methoxycarbamimidoyl)pyridine 1-oxide], the IC50 was determined as 0.53 nM.

As to `COc1c([C@H]2[C@H](C(=O)Nc3ccnc(NC(N)=O)c3)O[C@@](C)(C(F)(F)F)[C@H]2C)ccc(F)c1F` [Example 9, (2R,3S,4S,5R)-3-(3,4-Difluoro-2-methoxyphenyl)-4,5-dimethyl-5-(trifluoromethyl)-N-(2-ureidopyridin-4-yl)tetrahydrofuran-2-carboxamide], the IC50 was found to be 3.24 nM.

With `CNNC(=O)c1cc(NC(=O)[C@@H]2O[C@@](C)(C(F)(F)F)[C@@H](C)[C@H]2c2ccc(F)c(F)c2OC)ccn1` [Example 19, (2R,3S,4S,5R)-3-(3,4-Difluoro-2-methoxyphenyl)-4,5-dimethyl-N-(2-(2-methylhydrazine-1-carbonyl)pyridin-4-yl)-5-(trifluoromethyl)tetrahydrofuran-2-carboxamide], the IC50 came to 1.01 nM.

Take `C/N=C(\N)c1cc(NC(=O)[C@@H]2O[C@@](C)(C(F)(F)F)[C@@H](C)[C@H]2c2ccc(F)c(F)c2OC)ccn1` [Example 21, (2R,3S,4S,5R)-3-(3,4-Difluoro-2-methoxyphenyl)-4,5-dimethyl-N-(2-((Z)—N′-methylcarbamimidoyl)pyridin-4-yl)-5-(trifluoromethyl)tetrahydrofuran-2-carboxamide]: the IC50 was 1.35 nM.

For the molecule `CCNNC(=O)c1cc(NC(=O)[C@@H]2O[C@@](C)(C(F)(F)F)[C@@H](C)[C@H]2c2ccc(F)c(F)c2OC)ccn1` [Example 22, (2R,3S,4S,5R)-3-(3,4-Difluoro-2-methoxyphenyl)-N-(2-(2-ethylhydrazine-1-carbonyl)pyridin-4-yl)-4,5-dimethyl-5-(trifluoromethyl)tetrahydrofuran-2-carboxamide], the IC50 came out at 0.68 nM.

Consider `COc1c([C@H]2[C@H](C(=O)Nc3ccnc(C(N)CO)c3)O[C@@](C)(C(F)(F)F)[C@H]2C)ccc(F)c1F` (stereo partly drawn) [Example 6, (2R,3S,4S,5R)—N-(2-(1-Amino-2-hydroxyethyl)pyridin-4-yl)-3-(3,4-difluoro-2-methoxyphenyl)-4,5-dimethyl-5-(trifluoromethyl)tetrahydrofuran-2-carboxamide], for which the IC50 worked out at 1.87 nM.

These data come from US20260055088A1, “HETEROCYCLIC COMPOUND, METHOD FOR PREPARING SAME, AND PHARMACEUTICAL USE THEREOF” (Jiangsu Hengrui Pharmaceuticals Co., Ltd., priority 2022, published 2026).
